Among the data in patent publication US7652013B2, “Inhibitors of stearoyl-CoA desaturase” (Hoffman-La Roche Inc., priority 2007, dated 2010) are IC50 values, retold here.

In general, IC50 refers to the point on the concentration scale where inhibition reaches its midpoint. Low readings indicate greater potency, high ones weaker potency.

This assay has as its target T1, SCD1 (Mus musculus, UniProt P13516).
T1 construct: Mouse liver microsomes, prepared from mice fed a high carbohydrate diet, were a source of the SCD; from tissue; host or cells: mouse liver microsomes (mice fed a high carbohydrate diet)
T1 sequence (P13516 1-355): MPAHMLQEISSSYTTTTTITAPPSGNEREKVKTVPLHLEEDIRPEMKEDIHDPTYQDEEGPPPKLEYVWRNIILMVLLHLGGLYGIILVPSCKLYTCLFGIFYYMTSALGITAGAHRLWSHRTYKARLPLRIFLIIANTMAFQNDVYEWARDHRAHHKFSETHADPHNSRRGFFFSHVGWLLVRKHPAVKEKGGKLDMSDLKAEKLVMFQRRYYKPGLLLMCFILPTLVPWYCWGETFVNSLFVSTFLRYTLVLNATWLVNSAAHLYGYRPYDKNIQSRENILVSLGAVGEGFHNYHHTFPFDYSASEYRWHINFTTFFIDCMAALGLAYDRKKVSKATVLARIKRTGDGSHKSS
Nature of the assay: SCD assay: release of tritiated water from desaturation of 9,10-3H-stearoyl CoA, mouse liver microsomes. The format is biochemical. The source says:
Stearoyl CoA desaturase activity was monitored by a modification of the acyl carrier protein assay described by B. R. Talamo and K. Bloch in Anal. Biochem. 1968, 29, 300-304. The SCD assay monitors the release of tritiated water from the desaturation of 9,10-^3H-stearoyl CoA.
Mouse liver microsomes, prepared from mice fed a high carbohydrate diet, were a source of the SCD and cyt b5 and cyt b5 reductase, necessary accessory proteins for the coupled reaction. Reaction mixtures for compound titrations contained 50 mM Tris HCl pH 7.5, 100 mM NaCl, 0.165 mg/ml BSA, 2.4% DMSO, 1 mM NADH, 0.03% T-20, and 300 nM (9,10) ^3H-stearoyl CoA (Perkin-Elmer). Reactions were initiated upon the addition of 4 ug/ml SCD microsomes. Incubations were terminated after 25 minutes at room temperature with cold 6% TCA. After standing 10 minutes at 4 deg C., samples were centrifuged 15 minutes at 4000 rpm to pellet precipitated protein. Supernatants were added to microtiter plates containing suspensions of activated charcoal (Darco G-60, Fisher Scientific) and mixed by inversion. Plates were then centrifuged to separate ^3H—H2O product from charcoal-bound reactants. Supernatants were quantitated in a Perkin Elmer Topcount 384 after solubilization in ScintiSafe Plus 50% (Fisher Scientific).
Inhibition (%) of SCD activity by compounds was calculated according to the following formula: % Inhibition=100*[1−(CPMsample−CPMblank)/(CPMtotal−CPMblank)]
The compound `O=c1cc(N2CCN(Cc3cccc4c3OCO4)CC2)nc[nH]1` [Example 37, 6-(4-Benzo[1,3]dioxol-4-ylmethyl-piperazin-1-yl)-3H -pyrimidin-4-one] registered an IC50 of at least 1.1 µM.

In turn, `Cc1cccc(CN2CCN(c3cc(=O)[nH]cn3)CC2)c1O` [Example 38, 6-[4-(2-Hydroxy-3-methyl-benzyl)-piperazin-1-yl]-3H -pyrimidin-4-one] came in with an IC50 of at most 1 µM. The value for `O=c1cc(N2CCN(Cc3cccc(Cl)c3)CC2)nc[nH]1` [Example 12, 6-[4-(3-Chloro-benzyl)-piperazin-1-yl]-3H-pyrimidin-4-one] was at most 1 µM. In turn, `COc1ccc(Br)cc1CN1CCN(c2cc(=O)[nH]cn2)CC1` [Example 6, 6-[4-(5-Bromo-2-methoxy-benzyl)-piperazin-1-yl]-3H-pyrimidin-4-one] yielded an IC50 of at least 1.1 µM.

`O=c1cc(N2CCN(Cc3cccc(F)c3O)CC2)nc[nH]1` [Example 42, 6-[4-(3-Fluoro-2-hydroxy-benzyl)-piperazin-1-yl]-3H -pyrimidin-4-one]: the IC50 is at most 1 µM. Consider `O=c1cc(N2CCN(Cc3cc(Br)ccc3F)CC2)nc[nH]1` [Example 19, 6-[4-(5-Bromo-2-fluoro-benzyl)-piperazin-1-yl]-3H -pyrimidin-4-one], for which the IC50 was at least 1.1 µM. The value for `COc1cc(Cl)cc(CN2CCN(c3cc(=O)[nH]cn3)CC2)c1O` [Example 53, 6-[4-(5-Chloro-2-hydroxy-3-methoxy-benzyl)-piperazin-1-yl]-3H -pyrimidin-4-one] was at most 1 µM.

`Cc1cccc(C)c1CN1CCN(c2cc(=O)[nH]cn2)CC1` [Example 3, 6-[4-(2,6-Dimethyl-benzyl)-piperazin-1-yl]-3H-pyrimidin-4-one] yielded an IC50 of at most 1 µM.

In turn, `O=c1cc(N2CCN(Cc3cc(Cl)cc(Br)c3O)CC2)nc[nH]1` [Example 50, 6-[4-(3-Bromo-5-chloro-2-hydroxy-benzyl)-piperazin-1-yl]-3H-pyrimidin-4-one] displayed an IC50 of at most 1 µM. Then `O=c1cc(N2CCN(Cc3cc(Cl)cc(Cl)c3O)CC2)nc[nH]1` [Example 24, 6-[4-(3,5-Dichloro-2-hydroxy-benzyl)-piperazin-1-yl]-3H-pyrimidin-4-one], with at most 1 µM; and `O=c1cc(N2CCN(Cc3ccccc3Br)CC2)nc[nH]1` [Example 18, 6-[4-(2-Bromo-benzyl)-piperazin-1-yl]-3H-pyrimidin-4-one], with at most 1 µM; and `N#Cc1cc(CN2CCN(c3cc(=O)[nH]cn3)CC2)ccc1F` [Example 11, 2-Fluoro-5-[4-(6-oxo-1,6-dihydro-pyrimidin-4-yl) -piperazin-1-ylmethyl]-benzo-nitrile], with at most 1 µM. Then `O=c1cc(N2CCN(Cc3ccccc3[N+](=O)[O-])CC2)nc[nH]1` [Example 27, 6-[4-(2-Nitro-benzyl)-piperazin-1-yl]-3H-pyrimidin-4-one], with at most 1 µM; and `COc1ccc(CN2CCN(c3cc(=O)[nH]cn3)CC2)c(C)c1C` [Example 5, 6-[4-(4-Methoxy-2,3-dimethyl-benzyl)-piperazin-1-yl]-3H-pyrimidin-4-one], with at least 1.1 µM.

For `O=c1cc(N2CCN(Cc3ccc(F)c(F)c3)CC2)nc[nH]1` [Example 21, 6-[4-(3,4-Difluoro-benzyl)-piperazin-1-yl]-3H-pyrimidin-4-one], the IC50 is at most 1 µM. With `Cc1ccc(O)c(CN2CCN(c3cc(=O)[nH]cn3)CC2)c1` [Example 39, 6-[4-(2-Hydroxy-5-methyl-benzyl)-piperazin-1-yl]-3H -pyrimidin-4-one], the IC50 is at most 1 µM.

For `Cc1cc(Cl)cc(CN2CCN(c3cc(=O)[nH]cn3)CC2)c1O` [Example 47, 6-[4-(5-Chloro-2-hydroxy-3-methyl-benzyl)-piperazin-1-yl]-3H-pyrimidin-4-one], the IC50 was at most 1 µM. The value for `O=c1cc(N2CCN(Cc3cccc(Cl)c3Cl)CC2)nc[nH]1` [Example 17, 6-[4-(2,3-Dichloro-benzyl)-piperazin-1-yl]-3H-pyrimidin-4-one] was at most 1 µM.

The compound `O=c1cc(N2CCN(Cc3cc(C(F)(F)F)ccc3Cl)CC2)nc[nH]1` [Example 23, 6-[4-(2-Chloro-5-trifluoromethyl-benzyl)-piperazin-1-yl]-3H-pyrimidin-4-one] displayed an IC50 of at least 1.1 µM. Then `O=c1cc(N2CCN(Cc3cccc(Br)c3)CC2)nc[nH]1` [Example 13, 6-[4-(3-Bromo-benzyl)-piperazin-1-yl]-3H-pyrimidin-4-one], with at most 1 µM; and `O=c1cc(N2CCN(Cc3cc(F)cc(F)c3O)CC2)nc[nH]1` [Example 44, 6-[4-(3,5-Difluoro-2-hydroxy-benzyl)-piperazin-1-yl]-3H-pyrimidin-4-one], with at most 1 µM. Then `C=CCc1cc(CN2CCN(c3cc(=O)[nH]cn3)CC2)c(O)c(OC)c1` [Example 52, 6-[4-(5-Allyl-2-hydroxy-3-methoxy-benzyl)-piperazin-1-yl]-3H -pyrimidin-4-one], with at least 1.1 µM; and `O=c1cc(N2CCN(Cc3cc(F)ccc3Br)CC2)nc[nH]1` [Example 20, 6-[4-(2-Bromo-5-fluoro-benzyl)-piperazin-1-yl]-3H -pyrimidin-4-one], with at most 1 µM. The compound `O=c1cc(N2CCN(Cc3cc(Cl)ccc3[N+](=O)[O-])CC2)nc[nH]1` [Example 28, 6-[4-(5-Chloro-2-nitro-benzyl)-piperazin-1-yl]-3H -pyrimidin-4-one] returned an IC50 of at most 1 µM. `Cc1c(Br)cccc1CN1CCN(c2cc(=O)[nH]cn2)CC1` [Example 35, 6-[4-(3-Bromo-2-methyl-benzyl)-piperazin-1-yl]-3H -pyrimidin-4-one] yielded an IC50 of at most 1 µM. Then `O=c1cc(N2CCN(Cc3cc([N+](=O)[O-])ccc3O)CC2)nc[nH]1` [Example 29, 6-[4-(2-Hydroxy-5-nitro-benzyl)-piperazin-1-yl]-3H -pyrimidin-4-one], with at most 1 µM; and `O=c1cc(N2CCN(Cc3ccccc3O)CC2)nc[nH]1` [Example 30, 6-[4-(2-Hydroxy-benzyl)-piperazin-1-yl]-3H-pyrimidin-4-one], with at least 1.1 µM. The value for `O=c1cc(N2CCN(Cc3ccc(Cl)c(Cl)c3)CC2)nc[nH]1` [Example 15, 6-[4-(3,4-Dichloro-benzyl)-piperazin-1-yl]-3H-pyrimidin-4-one] was at most 1 µM; that for `COc1cc(I)cc(CN2CCN(c3cc(=O)[nH]cn3)CC2)c1O` [Example 54, 6-[4-(2-Hydroxy-5-iodo-3-methoxy-benzyl)-piperazin-1-yl]-3H -pyrimidin-4-one] was at most 1 µM; that for `O=c1cc(N2CCN(Cc3cc(F)ccc3O)CC2)nc[nH]1` [Example 43, 6-[4-(5-Fluoro-2-hydroxy-benzyl)-piperazin-1-yl]-3H -pyrimidin-4-one] was at most 1 µM. Then `O=c1cc(N2CCN(Cc3cc(OC(F)(F)F)ccc3O)CC2)nc[nH]1` [Example 31, 6-[4-(2-Hydroxy-5-trifluoromethoxy-benzyl)-piperazin-1-yl]-3H -pyrimidin-4-one], with at most 1 µM; and `O=c1cc(N2CCN(Cc3cc(Cl)ccc3O)CC2)nc[nH]1` [Example 46, 6-[4-(5-Chloro-2-hydroxy-benzyl)-piperazin-1-yl]-3H -pyrimidin-4-one], with at most 1 µM; and `O=c1cc(N2CCN(Cc3c(Cl)cccc3Cl)CC2)nc[nH]1` [Example 14, 6-[4-(2,6-Dichloro-benzyl)-piperazin-1-yl]-3H-pyrimidin-4-one], with at least 1.1 µM.

`O=c1cc(N2CCN(Cc3cc(Br)cc(Br)c3O)CC2)nc[nH]1` [Example 49, 6-[4-(3,5-Dibromo-2-hydroxy-benzyl)-piperazin-1-yl]-3H-pyrimidin-4-one] gave an IC50 of at most 1 µM.

`C=CCc1cccc(CN2CCN(c3cc(=O)[nH]cn3)CC2)c1O` [Example 40, 6-[4-(3-Allyl-2-hydroxy-benzyl)-piperazin-1-yl]-3H -pyrimidin-4-one] had an IC50 of at most 1 µM. For the compound `CC(C)(C)c1cccc(CN2CCN(c3cc(=O)[nH]cn3)CC2)c1O` [Example 41, 6-[4-(3-tert-Butyl-2-hydroxy-benzyl)-piperazin-1-yl]-3H-pyrimidin-4-one], the IC50 is at most 1 µM.

As for `O=c1cc(N2CCN(Cc3cccc([N+](=O)[O-])c3)CC2)nc[nH]1` [Example 26, 6-[4-(3-Nitro-benzyl)-piperazin-1-yl]-3H-pyrimidin-4-one], the IC50 was at least 1.1 µM.

`COc1cc([N+](=O)[O-])cc(CN2CCN(c3cc(=O)[nH]cn3)CC2)c1O` [Example 55, 6-[4-(2-Hydroxy-3-methoxy-5-nitro-benzyl)-piperazin-1-yl]-3H-pyrimidin-4-one]: the IC50 was at least 1.1 µM.
